Experimental data taken from ChEMBL document CHEMBL3603826, “6-Arylpyrazine-2-carboxamides: A New Core for Trypanosoma brucei Inhibitors” (J Med Chem, 2015).
pEC50: −log10 of the molar value. ≈ marks a conversion by molar mass, not a printed value. Values belong to the compound of their own block, whether it stands above or below them.

Assays:
[1] = system: Trypanosoma brucei brucei; assay: Anti-parasitic activity against Trypanosoma brucei brucei 427 bloodstream parasites incubated for 48 hrs by alamar blue dye based assay; format: functional, organism-based; conditions: Trypanosoma brucei, 427, 48 h
[2] = Selectivity index, ratio of cytotoxic IC50 for HEK293 cells to EC50 for anti-parasitic activity against Trypanosoma brucei brucei 427 bloodstream parasites; format: toxicity, cell-based; conditions: human, read-out: Ratio IC50/EC50
[3] = system: Trypanosoma brucei rhodesiense; assay: Anti-parasitic activity against Trypanosoma brucei rhodesiense STIB 900 trypomastigotes incubated for 70 hrs by alamar blue dye based assay; format: functional, organism-based; conditions: STIB 900, 70 h
Trypanosoma cruzi = assay: Anti-parasitic activity against Trypanosoma cruzi Tulahuen C2C4 trypomastigotes infected rat L6 cells incubated for 96 hrs by CPRG/nonidet substrate based […]; format: functional, organism-based; conditions: Tulahuen C2C4, L6, 96 h
Leishmania donovani = assay: Anti-parasitic activity against Leishmania donovani MHOM/ET/67/L82 axenic amastigotes incubated for 70 hrs by alamar blue dye based assay; format: functional, organism-based; conditions: MHOM/ET/67/L82, 70 h
Plasmodium falciparum = assay: Anti-parasitic activity against chloroquine and pyrimethamine resistant Plasmodium falciparum K1 erythrocytic stages infected in human erythrocytes incubated for 48 hrs by [3H]-hypoxanthine incorporation assay; format: functional, organism-based
[4] = Toxicity against rat L6 cells incubated for 70 hrs by alamar blue dye based assay; format: cell-based
[5] = Selectivity index, ratio of cytotoxic IC50 for rat L6 cells to EC50 for anti-parasitic activity against Trypanosoma brucei rhodesiense STIB 900; format: toxicity, cell-based; conditions: read-out: Ratio IC50/EC50
[6] = Partition coefficient, logD of the compound at pH 7.4 by HPLC method; format: physicochemical; conditions: octanol/water
[7] = Kinetic solubility in pH 2.0 0.01M HCl buffer by nephelometry; format: physicochemical; conditions: read-out: Kinetic_solubility
[8] = Kinetic solubility in pH 6.5 phosphate buffer by nephelometry; format: physicochemical; conditions: read-out: Kinetic_solubility
serum albumin = serum albumin (Homo sapiens, UniProt P02768); assay: Binding affinity to human serum albumin by chromatographic method; format: ADME; conditions: read-out: PB (converted)
[9] = Stability assessed as degradation half life; format: physicochemical
[10] = Intrinsic clearance in human liver microsomes assessed per mg protein at pH 7.4 at 0.5 uM in presence of NADPH regenerating system by LC-MS method; format: ADME; conditions: read-out: CLH
Brain = assay: Drug concentration in Swiss mouse brain at normalized dose of 1 mg/kg, iv after 5 mins by LC-MS method; format: ADME, organism-based; conditions: in vivo
[11] = Ratio of drug concentration in brain to plasma of Swiss mouse at normalized dose of 1 mg/kg, iv after 5 mins by LC-MS method; format: ADME, organism-based; conditions: read-out: BPR
Liver microsome [12] = assay: Drug level in human liver microsomes treated with 10 uM 3-Amino-N-cyclopentyl-6-(m-tolyl)pyrazine-2-carboxamide assessed as compound formation after 60 mins presence of NADPH regenerating system by LC-MS method; format: ADME; conditions: 1 h
Liver microsome [13] = assay: Drug level in human liver microsomes treated with 10 uM 3-Amino-N-cyclopentyl-6-(m-tolyl)pyrazine-2-carboxamide assessed as compound formation after 60 mins presence of NADPH regenerating system and UDPGA by LC-MS method; format: ADME; conditions: 1 h
[14] = Toxicity in late-stage human african trypanosomiasis patient assessed as mortality rate following 10-day schedule; format: organism-based; conditions: in vivo

serum albumin, sequence (P02768 whole entry): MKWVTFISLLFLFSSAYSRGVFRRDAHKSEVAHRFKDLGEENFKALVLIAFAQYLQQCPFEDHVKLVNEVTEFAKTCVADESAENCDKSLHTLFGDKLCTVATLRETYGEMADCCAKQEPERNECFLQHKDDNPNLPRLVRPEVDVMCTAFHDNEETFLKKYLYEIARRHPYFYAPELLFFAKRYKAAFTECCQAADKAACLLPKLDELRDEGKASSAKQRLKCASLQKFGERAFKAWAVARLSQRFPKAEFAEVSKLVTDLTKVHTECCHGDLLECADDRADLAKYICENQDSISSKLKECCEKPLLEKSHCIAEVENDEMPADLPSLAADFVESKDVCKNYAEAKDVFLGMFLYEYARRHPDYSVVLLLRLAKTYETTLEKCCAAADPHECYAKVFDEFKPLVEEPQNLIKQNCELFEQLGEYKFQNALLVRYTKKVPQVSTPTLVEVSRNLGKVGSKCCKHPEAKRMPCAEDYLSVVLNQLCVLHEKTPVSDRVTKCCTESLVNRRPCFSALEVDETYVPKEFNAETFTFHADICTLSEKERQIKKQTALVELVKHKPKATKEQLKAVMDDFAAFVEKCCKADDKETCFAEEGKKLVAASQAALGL

Compound: CCC(CC)NC(=O)c1nc(-c2ccc(F)cc2C#N)cnc1N
pEC50 [1]: 7.00 | selectivity ratio [2]: 850 | pEC50 [3]: 7.05 | pEC50 (Trypanosoma cruzi): 4.72 | pEC50 (Leishmania donovani): < 5.00 | pEC50 (Plasmodium falciparum): 5.54 | IC50 at 70 h [4]: 20 µM | selectivity ratio [5]: 230 | logD [6]: 4.2 | solubility kinetic [7]: < 1.6 µg/mL | solubility kinetic [8]: 1.6 µg/mL (≈ 4.89 µM) | fraction unbound (serum albumin): 0.029 | half-life [9]: 26 min | microsomal CLint at 0.5 µM [10]: 66 µL/min/mg

Compound: CCC(C)NC(=O)c1nc(-c2ccc(F)cc2)cnc1N (centres undefined)
pEC50 [1]: 6.40 | selectivity ratio [2]: > 206 | pEC50 [3]: 6.66 | pEC50 (Trypanosoma cruzi): 4.77 | pEC50 (Leishmania donovani): < 5.00 | pEC50 (Plasmodium falciparum): 5.05 | IC50 at 70 h [4]: 17 µM | selectivity ratio [5]: 61 | logD [6]: 4 | solubility kinetic [7]: 6.3 µg/mL (≈ 21.9 µM) | solubility kinetic [8]: 50 µg/mL (≈ 173 µM) | fraction unbound (serum albumin): 0.058 | half-life [9]: 15 min | microsomal CLint at 0.5 µM [10]: 119 µL/min/mg | Drug uptake (Brain): 1069.5 ng/g | Kp at 5 min [11]: 5.1

Compound: Nc1ncc(-c2ccccc2)nc1C(=O)NC1CCCC1
pEC50 [1]: 6.59 | selectivity ratio [2]: > 368 | pEC50 [3]: 6.85 | pEC50 (Trypanosoma cruzi): 4.89 | pEC50 (Leishmania donovani): < 5.00 | pEC50 (Plasmodium falciparum): 5.21 | IC50 at 70 h [4]: 20 µM | selectivity ratio [5]: 140 | logD [6]: 4.1 | solubility kinetic [7]: 6.3 µg/mL (≈ 22.3 µM) | solubility kinetic [8]: 25 µg/mL (≈ 88.5 µM) | fraction unbound (serum albumin): 0.042 | half-life [9]: 9 min | microsomal CLint at 0.5 µM [10]: 198 µL/min/mg | Drug uptake (Brain): 1192.3 ng/g | Kp at 5 min [11]: 5.7

Drug metabolism (Liver microsome [12]): metabolite_detected | Drug metabolism (Liver microsome [13]): metabolite_detected
Compound: Nc1ncc(-c2cccc(CO)c2)nc1C(=O)NC1CCCC1

Compound: Nc1nc(N)nc(Nc2ccc([As]3SCC(CO)S3)cc2)n1 (centres undefined) [MELARSOPROL]
mortality at 10 day [14]: 5.9%

Compound: N#Cc1ccccc1-c1cnc(N)c(C(=O)NC2CCCC2)n1
pEC50 [1]: 6.70 | selectivity ratio [2]: 416 | pEC50 [3]: 6.24 | pEC50 (Trypanosoma cruzi): 5.28 | pEC50 (Leishmania donovani): < 5.00 | pEC50 (Plasmodium falciparum): 5.60 | IC50 at 70 h [4]: 11 µM | selectivity ratio [5]: 19 | logD [6]: 3.9 | solubility kinetic [7]: 3.1 µg/mL (≈ 10.1 µM) | solubility kinetic [8]: < 1.6 µg/mL | fraction unbound (serum albumin): 0.038 | half-life [9]: 10 min | microsomal CLint at 0.5 µM [10]: 165 µL/min/mg

Drug metabolism (Liver microsome [12]): metabolite_detected | Drug metabolism (Liver microsome [13]): metabolite_detected
Compound: Cc1cccc(-c2cnc(N)c(C(=O)NC3=CCCC3)n2)c1

Drug metabolism (Liver microsome [12]): metabolite_detected | Drug metabolism (Liver microsome [13]): metabolite_detected
Compound: Nc1ncc(-c2cccc(C(=O)O)c2)nc1C(=O)NC1CCCC1

Compound: CCC(C)NC(=O)c1nc(-c2cccc(Cl)c2)cnc1N (centres undefined)
pEC50 [1]: 6.32 | selectivity ratio [2]: 175 | pEC50 [3]: 5.69 | pEC50 (Trypanosoma cruzi): 4.60 | pEC50 (Leishmania donovani): < 5.00 | pEC50 (Plasmodium falciparum): 5.96 | IC50 at 70 h [4]: 39 µM | selectivity ratio [5]: 20 | logD [6]: 4.4 | solubility kinetic [7]: 1.6 µg/mL (≈ 5.25 µM) | solubility kinetic [8]: 1.6 µg/mL (≈ 5.25 µM) | fraction unbound (serum albumin): 0.028 | half-life [9]: 12 min | microsomal CLint at 0.5 µM [10]: 147 µL/min/mg

Compound: CCC(CC)NC(=O)c1nc(-c2cccc(C)c2)cnc1N
pEC50 [1]: 6.96 | selectivity ratio [2]: 774 | pEC50 [3]: 6.85 | pEC50 (Trypanosoma cruzi): 4.70 | pEC50 (Leishmania donovani): < 5.00 | pEC50 (Plasmodium falciparum): 5.39 | IC50 at 70 h [4]: 20 µM | selectivity ratio [5]: 150 | logD [6]: 4.7 | solubility kinetic [7]: 1.6 µg/mL (≈ 5.36 µM) | solubility kinetic [8]: 1.6 µg/mL (≈ 5.36 µM) | fraction unbound (serum albumin): 0.036 | half-life [9]: 9 min | microsomal CLint at 0.5 µM [10]: 194 µL/min/mg

Compound: CCC(CC)NC(=O)c1nc(-c2ccc(F)c(C)c2)cnc1N
pEC50 [1]: 7.60 | selectivity ratio [2]: 423 | pEC50 [3]: 7.42 | pEC50 (Trypanosoma cruzi): 4.89 | pEC50 (Leishmania donovani): < 5.00 | pEC50 (Plasmodium falciparum): 5.74 | IC50 at 70 h [4]: 24 µM | selectivity ratio [5]: 630 | logD [6]: 4.8 | solubility kinetic [7]: < 1.6 µg/mL | solubility kinetic [8]: < 1.6 µg/mL | fraction unbound (serum albumin): 0.022 | half-life [9]: 8 min | microsomal CLint at 0.5 µM [10]: 212 µL/min/mg
